Where two headings read alike, the source gives them in different places.
Assays:
GCN2 kinase = GCN2 kinase (Homo sapiens, UniProt Q9P2K8); experiment: GCN2 enzyme inhibition assay (Transcreener ADP2 fluorescence polarization); format: biochemical; settings: 280 μM ATP
In short: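 4 nM GCN2 + 200 μM (RS)7 + compound (0–8 μM), 10 min preinc.; start with ATP (280 μM final); 1 h, 25 °C; pH 7.5 Tris/NaCl/MgCl2/DTT; ADP FP readout; IC50, Ki(app) via tight-binding fit.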

[1] = molecular target: intracellular GCN2 (phosphorylation of the GCN2 substrate eIF2α) (Homo sapiens, UniProt Q9P2K8); experiment: GCN2 cellular inhibition assay (AlphaScreen SureFire P-eIF2α Ser51, borrelidin-treated U2OS cells); format: cell-based
In short: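 U2OS, overnight attach; cpd 4-fold serial dil. from 40 μM final; borrelidin 10 μM, 1 h 37 °C/5% CO2; lyse; AlphaScreen P-eIF2α Ser51 (acceptor 2 h, donor overnight, RT, dark); % inhib. vs borrelidin-only.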

[2] = compounds of Formula II, 4 nM GCN2 kinase
[3] = compounds of Formula II, biomarker assay, phosphorylated eIF2α Ser51 in borrelidin-treated U2OS cells
[4] = compounds of Formula V, 4 nM GCN2 kinase
[5] = compounds of Formula V, U2OS cells, 10 μM borrelidin, 1 h, read-out: GCN2 Biomarker (IC50)
[6] = Enzyme activity for compounds of Formula IV, Ki(app), 25° C.
[7] = compounds of Formula IV, biomarker assay, phosphorylated eIF2α Ser51 in borrelidin-treated U2OS cells

Sequence of intracellular GCN2 (phosphorylation of the GCN2 substrate eIF2α) (Q9P2K8 whole entry): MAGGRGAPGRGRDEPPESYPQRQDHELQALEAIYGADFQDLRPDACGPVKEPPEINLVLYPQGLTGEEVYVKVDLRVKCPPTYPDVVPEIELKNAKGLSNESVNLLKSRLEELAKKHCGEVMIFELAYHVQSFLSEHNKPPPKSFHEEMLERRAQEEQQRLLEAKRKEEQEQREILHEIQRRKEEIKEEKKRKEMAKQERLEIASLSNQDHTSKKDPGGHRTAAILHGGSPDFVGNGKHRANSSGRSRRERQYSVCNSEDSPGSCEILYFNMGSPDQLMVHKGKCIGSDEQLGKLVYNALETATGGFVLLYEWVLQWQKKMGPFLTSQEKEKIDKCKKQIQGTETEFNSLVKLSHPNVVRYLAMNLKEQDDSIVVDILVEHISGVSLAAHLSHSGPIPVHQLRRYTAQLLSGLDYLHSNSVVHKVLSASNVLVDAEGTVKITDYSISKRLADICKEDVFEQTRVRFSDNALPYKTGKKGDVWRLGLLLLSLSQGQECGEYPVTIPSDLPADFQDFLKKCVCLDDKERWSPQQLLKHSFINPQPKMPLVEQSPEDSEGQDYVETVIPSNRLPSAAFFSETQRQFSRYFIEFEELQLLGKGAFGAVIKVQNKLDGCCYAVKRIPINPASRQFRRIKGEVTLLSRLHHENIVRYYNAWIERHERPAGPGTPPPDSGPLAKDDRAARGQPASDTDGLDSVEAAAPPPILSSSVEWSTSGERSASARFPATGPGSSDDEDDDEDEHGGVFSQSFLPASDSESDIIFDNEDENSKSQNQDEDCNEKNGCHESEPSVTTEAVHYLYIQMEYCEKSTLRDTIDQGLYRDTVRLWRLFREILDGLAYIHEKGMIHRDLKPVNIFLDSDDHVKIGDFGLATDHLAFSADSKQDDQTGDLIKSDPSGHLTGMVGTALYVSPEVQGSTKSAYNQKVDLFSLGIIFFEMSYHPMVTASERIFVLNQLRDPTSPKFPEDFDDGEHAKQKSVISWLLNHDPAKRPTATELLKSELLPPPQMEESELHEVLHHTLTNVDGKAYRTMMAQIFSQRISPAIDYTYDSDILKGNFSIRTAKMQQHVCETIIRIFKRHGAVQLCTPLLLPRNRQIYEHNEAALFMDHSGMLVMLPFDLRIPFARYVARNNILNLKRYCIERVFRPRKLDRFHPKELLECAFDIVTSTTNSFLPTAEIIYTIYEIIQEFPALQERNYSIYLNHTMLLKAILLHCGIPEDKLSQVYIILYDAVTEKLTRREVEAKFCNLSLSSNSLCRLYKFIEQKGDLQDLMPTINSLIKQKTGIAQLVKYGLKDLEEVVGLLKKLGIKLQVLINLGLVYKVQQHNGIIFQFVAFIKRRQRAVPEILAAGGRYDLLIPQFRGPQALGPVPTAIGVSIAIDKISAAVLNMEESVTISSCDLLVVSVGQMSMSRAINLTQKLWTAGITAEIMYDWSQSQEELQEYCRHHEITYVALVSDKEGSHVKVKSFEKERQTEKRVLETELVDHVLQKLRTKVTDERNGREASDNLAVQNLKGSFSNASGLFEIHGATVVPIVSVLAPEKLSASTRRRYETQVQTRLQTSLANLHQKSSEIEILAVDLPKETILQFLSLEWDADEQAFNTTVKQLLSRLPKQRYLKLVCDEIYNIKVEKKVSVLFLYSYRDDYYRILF
Sequence of GCN2 kinase (Q9P2K8 whole entry): as above

Ki (GCN2 kinase; [2])	IC50 [1, 3]	Ki (GCN2 kinase; [6])	IC50 [1, 7]	SMILES	further results
10 to 1000 nM	500 to 5000 nM	–	–	OC[C@@H]1CN(c2cc(-c3cnc4ccc(C(F)F)nn34)ncn2)C[C@@H](C(F)(F)F)O1 [II-297, ((2S,6S)-4-(6-(6-(Difluoromethyl)imidazo[1,2-b]pyridazin-3-yl)pyrimidin-4-yl)-6-(trifluoromethyl)morpholin-2-yl)methanol]	–
–	–	–	–	CC1CN(c2ccnc(-c3cnc4sc(C(F)(F)F)cn34)n2)C(C)C(c2cn[nH]c2)N1 (stereo not shown) [Compound V-13, 5-[4-[2,5-Dimethyl-3-(1H-pyrazol-4-yl)piperazin-1-yl]pyrimidin-2-yl]-2-(trifluoromethyl)imidazo[2,1-b]thiazole]	Ki (GCN2 kinase; [4]): < 10 nM; IC50 [1, 5]: < 500 nM
–	–	100 to 1000 nM	> 5000 nM	Cc1[nH]ncc1C1CN(c2ccnc(-c3cnc4cnc(C(F)(F)F)cn34)n2)CC(C)N1 (single isomer, unassigned) [IV-458, 3-(4-(3-Methyl-5-(5-methyl-1H-pyrazol-4-yl)piperazin-1-yl)pyrimidin-2-yl)-6-(trifluoromethyl)imidazo[1,2-a]pyrazine]	–
–	–	10 to 100 nM	> 5000 nM	CP(C)(=O)C1CC(c2cn[nH]c2)CN(c2ccnc(-c3cnc4cnc(C(F)(F)F)cn34)n2)C1 (single isomer, unassigned) [IV-632, (5-(1H-Pyrazol-4-yl)-1-(2-(6-(trifluoromethyl)imidazo[1,2-a]pyrazin-3-yl)pyrimidin-4-yl)piperidin-3-yl)dimethylphosphine oxide]	–
–	–	< 10 nM	< 500 nM	CC1C(c2cn[nH]c2)CCCN1c1nccc(-c2cnc3cnc(C(F)(F)F)cn23)n1 (stereo not shown) [IV-485, 3-(2-(2-Methyl-3-(1H-pyrazol-4-yl)piperidin-1-yl)pyrimidin-4-yl)-6-(trifluoromethyl)imidazo[1,2-a]pyrazine]	–
10 to 1000 nM	> 5000 nM	–	–	NS(=O)(=O)N1CCCC2(CN(c3cc(-c4cnc5ccc(C(F)F)nn45)ncn3)C2)C1 [II-284, 2-(6-(6-(Difluoromethyl)imidazo[1,2-b]pyridazin-3-yl)pyrimidin-4-yl)-2,6-diazaspiro[3.5]nonane-6-sulfonamide]	–
10 to 1000 nM	500 to 5000 nM	–	–	OC[C@@H]1CCCN(c2cc(-c3cnc4ccc(C(F)F)nn34)ncn2)C1 [II-520, (R)-(1-(6-(6-(Difluoromethyl)imidazo[1,2-b]pyridazin-3-yl)pyrimidin-4-yl)piperidin-3-yl)methanol]	–
–	–	100 to 1000 nM	> 5000 nM	OC1CCCN(c2ccnc(-c3cnc4cnc(C(F)F)cn34)n2)C1 (stereo not shown) [IV-120, 1-(2-(6-(Difluoromethyl)imidazo[1,2-a]pyrazin-3-yl)pyrimidin-4-yl)piperidin-3-ol]	–
–	–	100 to 1000 nM	> 5000 nM	OC1CCC2CN(c3ccnc(-c4cnc5cnc(C(F)F)cn45)n3)CC2C1 (stereo not shown) [IV-116, 2-(2-(6-(Difluoromethyl)imidazo[1,2-a]pyrazin-3-yl)pyrimidin-4-yl)octahydro-1H-isoindol-5-ol]	–
10 to 1000 nM	500 to 5000 nM	–	–	FC(F)c1ccc2ncc(-c3cc(N4CC5CC(C4)O5)ncn3)n2n1 [II-451, 3-(6-(6-(Difluoromethyl)imidazo[1,2-b]pyridazin-3-yl)pyrimidin-4-yl)-6-oxa-3-azabicyclo[3.1.1]heptane]	–
10 to 1000 nM	> 5000 nM	–	–	NS(=O)(=O)N1CC2CCN(c3cc(-c4cnc5ccc(C(F)F)nn45)ncn3)C2C1 (stereo not shown) [II-286, 1-(6-(6-(Difluoromethyl)imidazo[1,2-b]pyridazin-3-yl)pyrimidin-4-yl)hexahydropyrrolo[3,4-b]pyrrole-5(1H)-sulfonamide]	–
10 to 1000 nM	500 to 5000 nM	–	–	CS(=O)(=O)CC1CCN(c2cc(-c3cnc4ccc(C(F)F)nn34)ncn2)C1 (stereo not shown) [II-396, 6-(Difluoromethyl)-3-(6-(3-((methylsulfonyl)methyl)pyrrolidin-1-yl)pyrimidin-4-yl)imidazo[1,2-b]pyridazine]	–
–	–	< 10 nM	< 500 nM	OC1CCN(c2ccnc(-c3cnc4cnc(C(F)(F)F)cn34)n2)CC1c1cn[nH]c1 (single isomer, unassigned) [IV-623, 3-(1H-Pyrazol-4-yl)-1-(2-(6-(trifluoromethyl)imidazo[1,2-a]pyrazin-3-yl)pyrimidin-4-yl)piperidin-4-ol]	–
10 to 1000 nM	500 to 5000 nM	–	–	CC1CN(c2cc(-c3cnc4ccc(C(F)F)nn34)ccn2)CC(CNS(C)(=O)=O)O1 (stereo not shown) [II-118, N-((4-(4-(6-(Difluoromethyl)imidazo[1,2-b]pyridazin-3-yl)pyridin-2-yl)-6-methylmorpholin-2-yl)methyl)methanesulfonamide]	–
–	–	100 to 1000 nM	> 5000 nM	CC(=O)N1CCN(c2ccnc(-c3cnc4cnc(C(C)(F)F)cn34)n2)CC1 [IV-78, 1-(4-(2-(6-(1,1-Difluoroethyl)imidazo[1,2-a]pyrazin-3-yl)pyrimidin-4-yl)piperazin-1-yl)ethan-1-one]	–
–	–	100 to 1000 nM	> 5000 nM	FC(F)c1cn2c(-c3nsc(N4CCOC(c5cn[nH]c5)C4)n3)cnc2cn1 (stereo not shown) [IV-702, 4-(3-(6-(difluoromethyl)imidazo[1,2-a]pyrazin-3-yl)-1,2,4-thiadiazol-5-yl)-2-(1H-pyrazol-4-yl)morpholine]	–
–	–	100 to 1000 nM	500 to 5000 nM	CC1NCC(C)N(c2ccnc(-c3cnc4cnc(C(F)(F)F)cn34)n2)C1c1ccc(=O)[nH]c1 (stereo not shown) [IV-676, 5-(3,6-Dimethyl-1-(2-(6-(trifluoromethyl)imidazo[1,2-a]pyrazin-3-yl)pyrimidin-4-yl)piperazin-2-yl)pyridin-2(1H)-one]	–
–	–	< 10 nM	500 to 5000 nM	CC1CN(c2cncc(-c3cnc4cnc(C(F)(F)F)cn34)n2)C(C)C(c2cn[nH]c2)N1 (single isomer, unassigned) [IV-650, 3-(6-(2,5-Dimethyl-3-(1H-pyrazol-4-yl)piperazin-1-yl)pyrazin-2-yl)-6-(trifluoromethyl)imidazo[1,2-a]pyrazine]	–
10 to 1000 nM	500 to 5000 nM	–	–	CC1CN(c2cc(-c3cnc4ccc(C(F)F)nn34)ncn2)CC(CNS(C)(=O)=O)C1(F)F (stereo not shown) [II-35, N-((1-(6-(6-(Difluoromethyl)imidazo[1,2-b]pyridazin-3-yl)pyrimidin-4-yl)-4,4-difluoro-5-methylpiperidin-3-yl)methyl)methanesulfonamide]	–
–	–	100 to 1000 nM	> 5000 nM	COCC1CCCN(c2ccnc(-c3cnc4cnc(C(F)(F)F)cn34)n2)C1 (stereo not shown) [IV-495, 3-(4-(3-(Methoxymethyl)piperidin-1-yl)pyrimidin-2-yl)-6-(trifluoromethyl)imidazo[1,2-a]pyrazine]	–
–	–	10 to 100 nM	< 500 nM	FC(F)(F)c1cn2c(-c3ccnc(N4CCOC(c5cn[nH]c5)C4)n3)cnc2cn1 (stereo not shown) [IV-40, 2-(1H-Pyrazol-4-yl)-4-(4-(6-(trifluoromethyl)imidazo[1,2-a]pyrazin-3-yl)pyrimidin-2-yl)morpholine]	–
–	–	–	–	C[C@H]1CN(c2ccnc(-c3cnc4sc(C(F)F)cn34)n2)C[C@@H](CNS(C)(=O)=O)C1(F)F (stereo in doubt) [Compound V-1, N-((-1-(2-(2-(Difluoromethyl)imidazo[2,1-b]thiazol-5-yl)pyrimidin-4-yl)-4,4-difluoro-5-methylpiperidin-3-yl)methyl)methanesulfonamide]	Ki (GCN2 kinase; [4]): < 10 nM; IC50 [1, 5]: 500 to 5000 nM
< 10 nM	500 to 5000 nM	–	–	CS(=O)(=O)NCC1CN(c2cc(-c3cnc4ccc(C(F)F)nn34)ncn2)CCC1O (stereo not shown) [II-112, N-((1-(6-(6-(Difluoromethyl)imidazo[1,2-b]pyridazin-3-yl)pyrimidin-4-yl)-4-hydroxypiperidin-3-yl)methyl)methanesulfonamide]	–

Source: patent US10988477B2 (Merck Patent GmbH, priority 2018, dated 2021)
